One assay deals with T1, human CB2 (Homo sapiens, UniProt P34972).
T1 construct: expressed in transfected cells; host or cells: CHO cells
Briefly: Human CB2-mediated cyclic AMP (cAMP) production inhibition assay. It counts as cell-based. To be noted: 30 nM test substance, human CB2-expressing CHO cells, forskolin 0.5 μM, 30 minutes at room temperature; for inhibition at 0.03 µM: CHO, read-out: Inh (%): inhibitory rate of cAMP increase. Here is the method:
The present test was performed using CHO cells expressing human CB2 (“Molecular Pharmacology”, 1995, vol. 48, p. 443-450).
A suspension of human CB2-expressing CHO cells (2.5×10^3/mL), and an assay medium added with a test substance and forskolin (final concentration 0.5 μM) were mixed in the equivalent amounts, and incubated at room temperature for 30 minutes. Then, the cAMP concentration in the cell lysis solution obtained by the addition of a 0.6% Triton X-100 solution was measured using a cAMP kit (manufactured by Cisbio international). The assay medium includes an α-MEM medium manufactured by Invitrogen, supplemented with 0.02% CHAPS, 1 mM isobutylmethyl xanthine, and 0.5 mg/mL bovine serum albumin. As the cAMP concentration in the cell suspension without the addition of forskolin was set as a cAMP increase rate of 0% and the cAMP concentration in the cell suspension with the addition of forskolin was set as a cAMP increase rate of 100%, the inhibitory rate of the intracellular cAMP increase at 30 nM test substance was determined.
In the table, Ex indicates Example Compound number below, and Inh indicates an inhibitory rate of cAMP increase.

Assay [1] has as its system adjuvant-induced arthritis rats. Briefly: Inhibitory effect on hind paw weight distribution in adjuvant-induced arthritis rats. To be noted: orally administered, female Lewis rats. The format is in vivo. On the procedure:
For the experiment, female Lewis rats (7-8 week old) were used. 50 μL of inactivated Mycobacterium tuberculosis H37 Ra (manufactured by DIFCO) suspended with liquid paraffin to 10 mg/mL was administered subcutaneously into the right hindlimb footpad. The test substance was orally administered next day, the weights of the left and right hind paws after an arbitrary time were measured using Incapasitance Tester (manufactured by Columbus Instruments), and the weight distribution between left and right was calculated. As the weight distribution of the group administered with the vehicle was set as the inhibitory rate of 0% and the weight distribution of the normal group was set as the inhibitory rate of 100%, the inhibitory rate of the test substance was calculated.
In the table, Ex indicates Example Compound number below, Inh indicates an inhibitory rate of the weight distribution, and the description after to @ means the administration amount.

The values that follow come from patent US8524727B2, “Pyrimidine compound” (Astellas Pharma Inc., priority 2009, dated 2013).

T1 sequence (P34972 whole entry): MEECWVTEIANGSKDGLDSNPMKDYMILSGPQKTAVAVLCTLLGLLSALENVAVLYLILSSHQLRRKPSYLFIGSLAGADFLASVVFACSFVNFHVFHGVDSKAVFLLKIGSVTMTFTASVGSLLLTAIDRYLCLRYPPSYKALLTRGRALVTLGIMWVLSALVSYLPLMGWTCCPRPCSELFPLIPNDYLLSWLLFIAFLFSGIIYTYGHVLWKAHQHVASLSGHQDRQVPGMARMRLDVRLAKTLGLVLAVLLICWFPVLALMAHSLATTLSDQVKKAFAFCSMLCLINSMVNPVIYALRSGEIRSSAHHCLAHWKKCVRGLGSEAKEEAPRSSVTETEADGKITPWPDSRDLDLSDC

As to `O=C(c1cnc(NC23CC4(F)CC(F)(CC(F)(C4)C2)C3)nc1C(F)(F)F)N1CCS(=O)(=O)CC1` [Example 109], the inhibition at 0.03 µM on human CB2 is 80%. Besides, the “Inh (%): inhibitory rate of the weight distribution” value in assay [1] (0.3 mpk) is reported as 35@0.3 mpk %. In the case of `CC(C)c1nc(N[C@@H]2C[C@H]3CC[C@@H]2C3)ncc1C(=O)N1CCOCC1` [Example 83], the inhibition at 0.03 µM on human CB2 came to 84%.

For the compound `O=C(c1cnc(N[C@@H]2C[C@H]3CC[C@@H]2C3)nc1C(F)(F)F)N1CCS(=O)(=O)CC1` [Example 133], at human CB2, the “Inh (%): inhibitory rate of cAMP increase” value was 80%. On to `O=C(c1cnc(NC23CC4CC(CC(C4)C2)C3)nc1C(F)(F)F)N1CCOCC1` [Example 143], for which the inhibition at 0.03 µM on human CB2 worked out at 70%. On to `O=C(c1cnc(NC23CCC(CC2)CC3)nc1C(F)(F)F)N1CCS(=O)(=O)CC1` [Example 122], for which the inhibition at 0.03 µM at human CB2 came to 70%. For the same compound, the “Inh (%): inhibitory rate of the weight distribution” value in assay [1] (0.1 mpk) is 45@0.1 mpk %. As to `CC1(C)[C@@H]2CC[C@@]1(C)[C@@H](Nc1ncc(C(=O)N3CCS(=O)(=O)CC3)c(C(F)(F)F)n1)C2` [Example 106], on human CB2, the inhibition at 0.03 µM was determined as 74%. With `FC1(F)CCN(Cc2cnc(N[C@@H]3C[C@H]4CC[C@@H]3C4)nc2C(F)(F)F)CC1` [Example 161], the inhibition at 0.03 µM on human CB2 is 75%.

Turning to `CC(C)(C)c1nc(N[C@@H]2C[C@H]3CC[C@@H]2C3)ncc1C(=O)N1CCOCC1` [Example 72], the inhibition at 0.03 µM on human CB2 was found to be 99%. For the same compound, in assay [1] (0.1 mpk), the “Inh (%): inhibitory rate of the weight distribution” value is recorded as 40@0.1 mpk %.

Regarding `O=C(c1cnc(N[C@H]2C[C@@H]3CC[C@H]2C3)nc1C(F)(F)F)N1CCS(=O)(=O)CC1` [Example 138], at human CB2, the inhibition at 0.03 µM amounted to 49%. The same measure, in the same setting: the same measure for `CC1(C)CCN(c2ncc(C(=O)N3CCS(=O)(=O)CC3)c(C(F)(F)F)n2)c2ccccc21` [Example 55]: 63%.

On to `O=C(c1cnc(NC23CC4CC(CC(O)(C4)C2)C3)nc1C(F)(F)F)N1CC(F)(F)C(F)(F)C1` [Example 88], for which, at human CB2, the inhibition at 0.03 µM is 76%. In the case of `O=C(c1cnc(N[C@@H]2C[C@H]3CC[C@@H]2C3)nc1C(F)(F)F)N1CCS(=O)(=O)CC1` [Example 103], the inhibition at 0.03 µM on human CB2 came to 67%. The “Inh (%): inhibitory rate of the weight distribution” value in assay [1] (0.3 mpk) is given as 41@0.3 mpk %. Turning to `CC(C)c1nc(N[C@@H]2C[C@H]3CC[C@@H]2C3)ncc1C(=O)N1CCOCC1` [Example 64], the “Inh (%): inhibitory rate of cAMP increase” value at human CB2 is 85%. Further, in assay [1] (0.1 mpk), the “Inh (%): inhibitory rate of the weight distribution” value is 52@0.1 mpk %. Regarding `O=C(c1cnc(N[C@@H]2C[C@H]3CC[C@@H]2C3)nc1C1CC1)N1CCS(=O)(=O)CC1` [Example 67], the inhibition at 0.03 µM on human CB2 was found to be 76%. For the compound `O=C(c1cnc(NC23CC4CC(CC(C4)C2)C3)nc1C(F)(F)F)N1CCC(F)(F)CC1` [Example 45], the inhibition at 0.03 µM at human CB2 amounted to 79%. Regarding `CC(C)c1nc(N[C@H]2C[C@@H]3CC[C@H]2C3)ncc1C(=O)N1CCOCC1` [Example 79], the inhibition at 0.03 µM at human CB2 came to 74%.
